# Experiments:
# Aβ42 = experiment: Screening for γ-secretase-modulating activity, Method 2: Aβ42 Alphalisa on SKNBE2 cell supernatant; format: cell-based; settings: Method 2, Table 3c, SKNBE2 cells carrying APP 695 wild type, overnight incubation
# Procedure: (§1) Screening was carried out using SKNBE2 cells carrying the APP 695—wild type, grown in Dulbecco's Modified Eagle's Medium/Nutrient mixture F-12 (DMEM/NUT-mix F-12) (HAM) provided by Invitrogen (cat no. 10371-029) containing 5% Serum/Fe supplemented with 1% non-essential amino acids, 1-glutamine 2 mM, Hepes 15 mM, penicillin 50 U/ml (units/ml) en streptomycin 50 μg/ml. Cells were grown to near confluency.
# (§2) The screening was performed using a modification of the assay as described in Citron et al (1997) Nature Medicine 3: 67. Briefly, cells were plated in a 384-well plate at 10^4 cells/well in Ultraculture (Lonza, BE12-725F) supplemented with 1% glutamine (Invitrogen, 25030-024), 1% non-essential amino acid (NEAA), penicillin 50 U/ml en streptomycin 50 μg/ml in the presence of test compound at different test concentrations. The cell/compound mixture was incubated overnight at 37° C., 5% CO2. The next day the media were assayed by two sandwich immuno-assays, for Aβ42 and Aβtotal.
# (§3) Aβtotal and Aβ42 concentrations were quantified in the cell supernatant using the Aphalisa technology (Perkin Elmer). Alphalisa is a sandwich assay using biotinylated antibody attached to streptavidin coated donorbeads and antibody conjugated to acceptor beads. In the presence of antigen, the beads come into close proximity. The excitation of the donor beads provokes the release of singlet oxygen molecules that trigger a cascade of energy transfer in the acceptor beads, resulting in light emission. To quantify the amount of Aβ42 in the cell supernatant, monoclonal antibody specific to the C-terminus of Aβ42 (JRF/cAβ42/26) was coupled to the receptor beads and biotinylated antibody specific to the N-terminus of Aβ (JRF/AβN/25) was used to react with the donor beads. To quantify the amount of Aβtotal in the cell supernatant, monoclonal antibody specific to the N-terminus of Aβ (JRF/AβN/25) was coupled to the receptor beads and biotinylated antibody specific to the mid region of Aβ (biotinylated 4G8) was used to react with the donor beads.
# (§4) To obtain the values reported in Table 3c, the data were calculated as percentage of the maximum amount of amyloid Beta 42 measured in the absence of the test compound. The sigmoidal dose response curves were analyzed using non-linear regression analysis with percentage of the control plotted against the log concentration of the compound. A 4-parameter equation was used to determine the IC50.
# Aβtotal = experiment: Screening for γ-secretase-modulating activity, Method 2: Aβtotal Alphalisa on SKNBE2 cell supernatant; format: cell-based; settings: Method 2, Table 3c, SKNBE2 cells carrying APP 695 wild type, overnight incubation
# Procedure: as §1, §2, §3, §4
Compound,IC50 (Aβ42) [µM],IC50 (Aβtotal) [µM],IC50 (Aβ42; Homo sapiens) [µM],IC50 (Aβtotal; Homo sapiens) [µM]
COc1cccc(-c2nc3c(Nc4ccc(-n5cnc(C)c5)c(OC)n4)cccc3o2)c1 [Compound 152],0.234,8.13,,
COc1cc(Nc2cncc3c2nc(-c2ccc(F)cc2)n3C)ccc1-n1cnc(C)n1 [Compound 158],0.166,> 10,,
COc1nc(Nc2cccc3c2nc(-c2ccc(F)cc2)n3C)ccc1-n1cnc(C)n1 [Compound 161],0.007,> 10,,
COc1nc(Nc2cccc3c2nc(-c2ccc(C(F)(F)F)cc2)n3C)ccc1-n1cnc(C)c1 [Compound 168],0.008,7.76,,
COc1nc(Nc2cccc3c2nc(-c2ccccc2OC(F)(F)F)n3C)ccc1-n1cnc(C)c1 [Compound 170],0.036,9.12,,
COc1nc(Nc2cccc3c2nc(-c2ccccc2C(F)(F)F)n3C)ccc1-n1cnc(C)c1 [Compound 172],0.023,> 10,,
COc1nc(Nc2cccc3c2nc(-c2cccc(N(C)C)c2)n3C)ccc1-n1cnc(C)c1 [Compound 173],0.02,7.94,,
COc1nc(Nc2cccc3c2nc(-c2cccc(F)c2F)n3C)ccc1-n1cnc(C)c1 [Compound 176],0.023,> 10,,
COc1cccc(-c2nc3c(Nc4ccc(-n5cnc(C)c5)c(OC)n4)cccc3n2C)c1 [Compound 177],0.02,8.91,,
COc1ccc(-c2nc3c(Nc4ccc(-n5cnc(C)c5)c(OC)n4)cccc3n2C)cc1 [Compound 178],0.023,> 10,,
CCOc1cccc(-c2nc3c(Nc4ccc(-n5cnc(C)c5)c(OC)n4)cccc3n2C)c1 [Compound 179],0.011,7.94,,
COc1cc(-c2nc3c(Nc4ccc(-n5cnc(C)c5)c(OC)n4)cccc3n2C)cc(C(F)(F)F)c1 [Compound 183],0.01,9.12,,
COc1nc(Nc2cccc3c2nc(-c2ccc(F)cc2C)n3C)ccc1-n1cnc(C)c1 [Compound 185],0.025,> 10,,
COc1nc(Nc2cccc3c2nc(-c2ccc(OC(F)(F)F)cc2)n3C)ccc1-n1cnc(C)c1 [Compound 191],0.018,> 10,,
COc1nc(Nc2cccc3c2nc(-c2ccccc2F)n3C)ccc1-n1cnc(C)c1 [Compound 193],0.039,7.08,,
COc1ccc(-c2nc3c(Nc4ccc(-n5cnc(C)c5)c(OC)n4)cccc3n2C)c(C)c1 [Compound 194],0.022,> 10,,
COc1nc(Nc2cccc3c2nc(-c2cc(C(F)(F)F)ccc2C)n3C)ccc1-n1cnc(C)c1 [Compound 195],0.025,6.46,,
COc1nc(Nc2cccc3c2nc(-c2ccccc2)n3C)ccc1-n1cnc(C)c1 [Compound 196],0.019,8.51,,
COc1nc(Nc2cccc3c2nc(-c2ccc(N(C)C)cc2)n3C)ccc1-n1cnc(C)c1 [Compound 197],0.035,8.23,,
COc1nc(Nc2cccc3c2nc(-c2cccc(C#N)c2)n3C)ccc1-n1cnc(C)c1 [Compound 198],0.048,> 10,,
COc1cc(Nc2cc(C3CC3)nc3c2nc(-c2ccc(F)cc2)n3C)ccc1-n1cnc(C)n1 [Compound 199],0.013,> 10,,
COc1cc(Nc2ccnc3c2nc(-c2ccc(F)cc2)n3C)ccc1-n1cnc(C)n1 [Compound 200],0.04,> 10,,
COc1nc(Nc2ccnc3c2nc(-c2ccc(F)cc2)n3C)ccc1-n1cnc(C)c1 [Compound 201],0.004,> 10,,

# Other lines, results leading:
IC50 (Aβ42) [µM],IC50 (Aβtotal) [µM],IC50 (Aβ42; Homo sapiens) [µM],IC50 (Aβtotal; Homo sapiens) [µM],Compound
0.012,6.46,,,CCOc1cccc(-c2nc3c(Nc4ccc(-n5cnc(C)c5)c(F)c4)nc(C)cc3n2C)c1 [Compound 153]
,,0.019,0.56,Cc1cc2c(nc(-c3ccc(F)cc3)n2C)c(Nc2ccc(-n3cc(C)nc3I)c(F)c2)n1 [Compound 154]
0.008,> 10,,,Cc1cn(-c2ccc(Nc3nc(C)cc4c3nc(-c3ccc(F)c(Br)c3)n4C)cc2F)cn1 [Compound 155]
0.005,> 10,,,COc1nc(Nc2cccc3c2nc(-c2ccc(F)c(I)c2)n3C)ccc1-n1cnc(C)c1 [Compound 169]
0.027,> 10,,,COc1nc(Nc2cccc3c2nc(-c2cccc(F)c2)n3C)ccc1-n1cnc(C)c1 [Compound 171]
0.021,> 10,,,COc1nc(Nc2cccc3c2nc(-c2ccc(F)c(F)c2)n3C)ccc1-n1cnc(C)c1 [Compound 175]
0.018,> 10,,,COc1ccc(F)c(-c2nc3c(Nc4ccc(-n5cnc(C)c5)c(OC)n4)cccc3n2C)c1 [Compound 180]
0.039,> 10,,,COc1ccc(-c2nc3c(Nc4ccc(-n5cnc(C)c5)c(OC)n4)cccc3n2C)c(F)c1 [Compound 182]
0.014,8.32,,,COc1cc(F)cc(-c2nc3c(Nc4ccc(-n5cnc(C)c5)c(OC)n4)cccc3n2C)c1 [Compound 188]
0.026,> 10,,,COc1nc(Nc2cccc3c2nc(-c2ccc(F)cc2F)n3C)ccc1-n1cnc(C)c1 [Compound 190]
0.013,8.91,,,COc1nc(Nc2cccc3c2nc(-c2ccc(F)c(C(F)(F)F)c2)n3C)ccc1-n1cnc(C)c1 [Compound 192]
0.004,> 10,,,COc1nc(Nc2cc(C)nc3c2nc(-c2ccc(F)cc2)n3C)ccc1-n1cnc(C)c1 [Compound 203]
0.014,> 10,,,COc1cc(Nc2ccc(-n3cnc(C)c3)c(F)c2)c2nc(-c3ccc(F)cc3)n(C)c2n1 [Compound 204]
0.063,> 10,,,Cc1cn(-c2ccc(Nc3ccnc4c3nc(-c3ccc(F)cc3)n4C)cc2F)cn1 [Compound 205]

# Reference: patent US8772504B2, “Substituted benzoxazole, benzimidazole, oxazolopyridine and imidazopyridine derivatives as gamma secretase modulators” (Janssen Pharmaceuticals, Inc., priority 2009, dated 2014)
